Reference: the CheMixHub viscosity set

Experiment: xn = mol fraction of the nth substance listed

CCOCCO + CCCCCCCC
viscosity [mPa·s], 101.33 kPa
Details | x1 = 0.0976 | x1 = 0.1994 | x1 = 0.3003 | x1 = 0.4001 | x1 = 0.5004 | x1 = 0.5944 | x1 = 0.6962 | x1 = 0.7983 | x1 = 0.8969
298.15 K | 0.524 | 0.566 | 0.619 | 0.687 | 0.772 | 0.87 | 1.003 | 1.179 | 1.421
303.15 K | 0.49 | 0.527 | 0.574 | 0.632 | 0.71 | 0.795 | 0.911 | 1.069 | 1.279
308.15 K | 0.463 | 0.494 | 0.538 | 0.591 | 0.657 | 0.732 | 0.834 | 0.972 | 1.155
313.15 K | 0.434 | 0.462 | 0.5 | 0.55 | 0.609 | 0.673 | 0.763 | 0.896 | 1.05

CCOCCO + CCCCCCCCC
viscosity [mPa·s], 101.33 kPa
Details | x1 = 0.098 | x1 = 0.2031 | x1 = 0.3023 | x1 = 0.4074 | x1 = 0.505 | x1 = 0.601 | x1 = 0.7022 | x1 = 0.8034 | x1 = 0.9003
298.15 K | 0.662 | 0.696 | 0.746 | 0.822 | 0.9 | 1.024 | 1.107 | 1.263 | 1.469
303.15 K | 0.62 | 0.646 | 0.69 | 0.753 | 0.821 | 0.929 | 1.005 | 1.137 | 1.316
308.15 K | 0.577 | 0.601 | 0.64 | 0.697 | 0.757 | 0.853 | 0.916 | 1.034 | 1.191
313.15 K | 0.537 | 0.558 | 0.596 | 0.642 | 0.698 | 0.778 | 0.837 | 0.939 | 1.075

CCOCCO + CCCCCCCCCC
viscosity [mPa·s], 101.33 kPa
Details | x1 = 0.0958 | x1 = 0.2018 | x1 = 0.2985 | x1 = 0.4011 | x1 = 0.4984 | x1 = 0.5978 | x1 = 0.6989 | x1 = 0.7994 | x1 = 0.8984
298.15 K | 0.828 | 0.851 | 0.905 | 0.962 | 1.046 | 1.128 | 1.223 | 1.345 | 1.512
303.15 K | 0.767 | 0.785 | 0.827 | 0.879 | 0.946 | 1.016 | 1.108 | 1.209 | 1.354
308.15 K | 0.709 | 0.725 | 0.766 | 0.806 | 0.866 | 0.929 | 1.001 | 1.096 | 1.223
313.15 K | 0.661 | 0.681 | 0.705 | 0.744 | 0.797 | 0.844 | 0.921 | 0.992 | 1.103

CC12CCC(CC1=O)C2(C)C (configuration not stated) + CCCCCCCCCC(=O)O
101.33 kPa, x2 = 0.7
Details | viscosity [mPa·s]
298.15 K | 10.76
303.15 K | 9.184
308.05 K | 7.889
313.05 K | 6.866
318.15 K | 6.143
323.05 K | 5.9

CCOCCO + CCCCCCCCCCCC
viscosity [mPa·s], 101.33 kPa
Details | x1 = 0.1001 | x1 = 0.1987 | x1 = 0.3009 | x1 = 0.3972 | x1 = 0.5014 | x1 = 0.5996 | x1 = 0.6933 | x1 = 0.7988 | x1 = 0.8984
298.15 K | 1.288 | 1.294 | 1.321 | 1.339 | 1.379 | 1.412 | 1.453 | 1.529 | 1.636
303.15 K | 1.171 | 1.174 | 1.195 | 1.223 | 1.256 | 1.284 | 1.317 | 1.387 | 1.465
308.15 K | 1.075 | 1.076 | 1.09 | 1.115 | 1.138 | 1.166 | 1.191 | 1.254 | 1.316
313.15 K | 0.986 | 0.987 | 0.997 | 1.02 | 1.045 | 1.063 | 1.082 | 1.139 | 1.191

CC12CCC(CC1=O)C2(C)C (configuration not stated) + CCCCCCCCCCO
101.33 kPa, x2 = 0.7
Details | viscosity [mPa·s]
298.15 K | 12.14
303.15 K | 10.24
308.05 K | 8.898
313.15 K | 7.817
318.05 K | 6.806
323.05 K | 5.915

CCOCCO + CCCCCCCCO
298.15 K, 101 kPa
Details | viscosity [mPa·s]
x1 = 0.1384 | 6.062
x1 = 0.2654 | 5.061
x1 = 0.3825 | 4.268
x1 = 0.4907 | 3.649
x1 = 0.591 | 3.172
x1 = 0.6843 | 2.805
x1 = 0.7713 | 2.504
x1 = 0.8525 | 2.266
x1 = 0.9286 | 2.078

CC(CC(C)(C)C)CP(=O)(O)CC(C)CC(C)(C)C (configuration not stated) + CCCCCCCO
298.15 K, 101 kPa
Details | viscosity [mPa·s]
x1 = 0.0091 | 6.029
x1 = 0.0166 | 6.297
x1 = 0.0189 | 6.395
x2 = 0.0832 | 103
x2 = 0.1509 | 92.76
x2 = 0.2814 | 72.97
x2 = 0.4338 | 51.94
x2 = 0.5979 | 33.45
x2 = 0.6948 | 24.29
x2 = 0.7164 | 22.65
x2 = 0.819 | 14.88
x2 = 0.83 | 13.87
x2 = 0.8984 | 10.18
x2 = 0.9056 | 9.875
x2 = 0.9596 | 7.316

CCOCCO + CCCCCCCO
298.15 K, 101 kPa
Details | viscosity [mPa·s]
x1 = 0.1253 | 4.967
x1 = 0.2438 | 4.207
x1 = 0.3559 | 3.655
x1 = 0.4623 | 3.23
x1 = 0.5632 | 2.902
x1 = 0.6592 | 2.617
x1 = 0.7505 | 2.383
x1 = 0.8376 | 2.2
x1 = 0.9207 | 2.041

CCOCCO + CCCCCO
298.15 K, 101 kPa
Details | viscosity [mPa·s]
x1 = 0.098 | 3.167
x1 = 0.1965 | 2.864
x1 = 0.2954 | 2.619
x1 = 0.3947 | 2.431
x1 = 0.4945 | 2.283
x1 = 0.5947 | 2.178
x1 = 0.6953 | 2.099
x1 = 0.7964 | 2.027
x1 = 0.898 | 1.954

COCc1ccccc1 + CCCCCOC(C)=O
Details | viscosity [mPa·s]
298.15 K, 101 kPa, x2 = 0.5 | 0.8479

Oc1ccc(Cl)cc1 + CCCCCOC(C)=O
Details | viscosity [mPa·s]
298.15 K, 101 kPa, x1 = 0.5 | 1.27

CNC(C)=O + CCCCN
308.15 K, 101 kPa
Details | viscosity [mPa·s]
x1 = 0.0335 | 0.414
x1 = 0.1849 | 0.5985
x1 = 0.3822 | 0.9135
x1 = 0.4385 | 1.049
x1 = 0.5671 | 1.387
x1 = 0.6888 | 1.829
x1 = 0.7756 | 2.15
x1 = 0.8792 | 2.675
x1 = 0.9781 | 3.172

Oc1ccc(Cl)cc1 + CCCCN(CCCC)CCCC
298.16 K, 101 kPa
Details | viscosity [mPa·s]
x1 = 0.5057 | 14.04
x1 = 0.5498 | 23.8
x1 = 0.6004 | 46.15
x1 = 0.6534 | 94.2
x1 = 0.7034 | 222.8
x1 = 0.714 | 261.7
x1 = 0.7471 | 389.7
x1 = 0.7798 | 438.6
x1 = 0.8047 | 424.7
x1 = 0.8194 | 339.1
x1 = 0.8508 | 228.2
x1 = 0.8615 | 173.1
x1 = 0.88 | 141.3
x1 = 0.9041 | 99.6
x1 = 0.915 | 73.06
x1 = 0.9457 | 46.28
x1 = 0.9798 | 26.23
x2 = 0.002811 | 19.56

Oc1ccc(Cl)cc1 + CCCCNCCCC
298.16 K, 101 kPa
Details | viscosity [mPa·s]
x1 = 0.4053 | 3.541
x1 = 0.5045 | 11.99
x1 = 0.5585 | 31.68
x1 = 0.6051 | 56.94
x1 = 0.6526 | 126.7
x1 = 0.6871 | 181.4
x1 = 0.7235 | 251.1
x1 = 0.7533 | 273.6
x1 = 0.7813 | 263
x1 = 0.8104 | 221
x1 = 0.84 | 163.2
x1 = 0.8686 | 111.1
x1 = 0.8961 | 79.37
x1 = 0.9256 | 53.62
x1 = 0.9749 | 26.85
